Reference: patent US5225607A, “Insecticidal ethers” (Imperial Chemical Industries PLC, priority 1985, dated 1993)

Assays:
Type in all cases: in vivo
Tetranychus urticae = assay: Insecticidal/acaricidal test, Tetranychus urticae (spider mites - adult), contact; details: 72 h, French bean leaf, 3 days, read-out: grading of mortality, TU
Experimental: The activity of the Product was determined using a variety of insect and acarine pests. The Product was used in the form of liquid preparations containing 500, 250 or 100 parts per million (ppm) by weight of the Product. The preparations were made by dissolving the Product in acetone and diluting the solutions with water containing 0.01% by weight of a wetting agent sold under the trade name "LISSAPOL" NX until the liquid preparations contained the required concentratio of the Product. "Lissapol" is a Registered Trade Mark.
The test procedure adopted with regard to each pest was basically the same and comprised supporting a number of the pests on a medium which was usually a host plant or a foodstuff on which the pests feed, and treating either or both the pests and the medium with the preparations. The mortality of the pests was then assessed at periods usually varying from one to three days after the treatment.
The results of the tests are given in Table IV for each of the Products, at the rate in parts per million given in the second column as a grading of mortality designated as A, B or C wherein A indicates 80-100% mortality or knockdown (70-100% in the case of Spodoptera exigua), B indicates 50-79% mortality or knockdown (50-69% in the case of Spodoptera exigua) and C indicates less than 50% mortality or knockdown.
In Table IV the pest organism used is designated by a letter code and the pest species, the support medium or food, and the type and duration of test is given in Table III.

Myzus persicae = assay: Insecticidal test, Myzus persicae (aphids), contact; details: 72 h, Chinese Cabbage leaf, 3 days, read-out: grading of mortality, MP
In short: (§1)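 Acetone solution diluted in water + 0.01% wetting agent; 500/250/100 ppm. Treat pests and/or host plant/food medium. Read mortality/knockdown day 1–3. Grades: A 80–100% (S. exigua 70–100%), B 50–79% (50–69%), C <50%.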

Musca domestica [1] = assay: Insecticidal test, Musca domestica (houseflies - adults), contact; details: 24 h, cotton wool/sugar, 1 day, read-out: grading of mortality, MD
In short: as §1

Musca domestica [2] = assay: Knockdown test, Musca domestica (houseflies - adults); details: cotton wool/sugar, 4 hours, read-out: grading of knockdown, MD/KD
In short: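 Knockdown scores were banded: A 80–100%, B 50–79%, C <50%. Test preparations of 500, 250 or 100 ppm compound were made in acetone, then diluted with water containing 0.01% Lissapol NX, and applied to Musca domestica adults.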

Nilaparvata lugens = assay: Insecticidal test, Nilaparvata lugens (brown planthopper), contact; details: 72 h, Cabbage leaf, 3 days, read-out: grading of mortality, NL
In short: as §1

Heliothis virescens = assay: whole plant or invertebrate; details: in Gossypium hirsutum, 72 h, read-out: grading of mortality, HV
In short: as §1

Diabrotica balteata = assay: Insecticidal test, Diabrotica balteata (rootworm larvae), residual; details: 72 h, filter paper/maize seed, 3 days, read-out: grading of mortality, DB
In short: as §1

Blattella germanica = assay: Insecticidal test, Blattella germanica (cockroach nymphs), residual; details: 72 h, plastic pot, 3 days, read-out: grading of mortality, BG
In short: as §1

| SMILES | mortality at 500 ppm (Tetranychus urticae) [%] | mortality at 500 ppm (Myzus persicae) [%] | mortality at 500 ppm (Musca domestica [1]) [%] | pest or weed control at 500 ppm (Musca domestica [2]) [%] | mortality at 500 ppm (Nilaparvata lugens) [%] | mortality at 500 ppm (Heliothis virescens) [%] | mortality at 500 ppm (Diabrotica balteata) [%] | mortality at 500 ppm (Blattella germanica) [%] | further results |
| --- | --- | --- | --- | --- | --- | --- | --- | --- | --- |
| CCOc1ccc(C(Cl)(COCc2cccc(Oc3ccccc3)c2)C(F)(F)F)cc1 (stereo not drawn) [Compound 38, 1,1,1-trifluoro-2-chloro-2-(4-ethoxyphenyl)-3-(3-phenoxybenzyloxy)propane] | – | – | – | – | – | – | – | – | mortality at 100 ppm (Tetranychus urticae): < 50%; mortality at 100 ppm (Myzus persicae): 80 to 100%; mortality at 100 ppm (Musca domestica [1]): 80 to 100%; pest or weed control at 100 ppm (Musca domestica [2]): < 50%; mortality at 100 ppm (Nilaparvata lugens): 50 to 79%; mortality at 100 ppm (Heliothis virescens): 80 to 100%; mortality at 100 ppm (Diabrotica balteata): < 50%; mortality at 100 ppm (Blattella germanica): 80 to 100% |
| CCOc1ccc(C(Cl)(COCc2cccc(Oc3ccc(Cl)cc3)c2)C(F)(F)F)cc1 (stereo not drawn) [Compound 42, 1,1,1-Trifluoro-2-chloro-2-(4-ethoxyphenyl)-3-(3-(4-chlorophenoxy)benzyloxy)propane] | – | – | – | – | – | – | – | – | mortality at 250 ppm (Tetranychus urticae): < 50%; mortality at 250 ppm (Myzus persicae): 80 to 100%; mortality at 250 ppm (Musca domestica [1]): 80 to 100%; pest or weed control at 250 ppm (Musca domestica [2]): 80 to 100%; mortality at 250 ppm (Nilaparvata lugens): 80 to 100%; mortality at 250 ppm (Heliothis virescens): 80 to 100%; mortality at 250 ppm (Diabrotica balteata): 50 to 79%; mortality at 250 ppm (Blattella germanica): 80 to 100% |
| CCOc1ccc(C(Cl)(COCc2ccc(F)c(Oc3ccc(Cl)cc3)c2)C(F)(F)F)cc1 (stereo not drawn) [Compound 44, 1,1,1-Trifluoro-2-chloro-2-(4-ethoxyphenyl)-3-(3-(4-chlorophenoxy)-4-fluorobenzyloxy)propane] | < 50 | 80 to 100 | 80 to 100 | 80 to 100 | 80 to 100 | 80 to 100 | 50 to 79 | 80 to 100 | – |
| CCOc1ccc(C(Cl)(COCc2coc(Cc3ccccc3)c2)C(F)(F)F)cc1 (stereo not drawn) [Compound 45, 1,1,1-Trifluoro-2-chloro-2-(4-ethoxyphenyl)-3-(5-benzyl-3-furanylmethyloxy)propane] | – | – | – | – | – | – | – | – | mortality at 250 ppm (Tetranychus urticae): 50 to 79%; mortality at 250 ppm (Myzus persicae): < 50%; mortality at 250 ppm (Musca domestica [1]): < 50%; pest or weed control at 250 ppm (Musca domestica [2]): 80 to 100%; mortality at 250 ppm (Nilaparvata lugens): < 50%; mortality at 250 ppm (Heliothis virescens): < 50%; mortality at 250 ppm (Diabrotica balteata): < 50%; mortality at 250 ppm (Blattella germanica): < 50% |
| CCOc1ccc(C(Cl)(COCc2cccc(-c3ccccc3)c2C)C(F)(F)F)cc1 (stereo not drawn) [Compound 46, 1,1,1-Trifluoro-2-chloro-2-(4-ethoxyphenyl)-3-(2-methyl-3-phenylbenzyloxy)propane] | < 50 | < 50 | < 50 | 80 to 100 | < 50 | < 50 | < 50 | < 50 | – |
| Fc1ccc(COCC(Cl)(c2ccc(Cl)cc2)C(F)(F)F)cc1Oc1ccccc1 (stereo not drawn) [Compound 50, 1,1,1-Trifluoro-2-chloro-2-(4-chlorophenyl)-3-(3-phenoxy-4-fluorobenzyloxy)propane] | < 50 | 80 to 100 | 80 to 100 | 80 to 100 | 80 to 100 | 80 to 100 | 80 to 100 | < 50 | – |
| Fc1ccc(COCC(Cl)(c2ccc3c(c2)CCC3)C(F)(F)F)cc1Oc1ccccc1 (stereo not drawn) [Compound 52, 1,1,1,-Trifluoro-2-chloro-2-(5-indanyl)-3-(3-phenoxy-4-fluorobenzyloxy)propane] | < 50 | < 50 | 50 to 79 | 80 to 100 | < 50 | 50 to 79 | < 50 | 80 to 100 | – |
| CCCc1ccc(C(Cl)(COCc2ccc(F)c(Oc3ccccc3)c2)C(F)(F)F)cc1 (stereo not drawn) [Compound 53, 1,1,1-Trifluoro-2-chloro-2-(4-n-propylphenyl)-3-(3-phenoxy-4-fluorobenzyloxy)propane] | 80 to 100 | 80 to 100 | 80 to 100 | 80 to 100 | 80 to 100 | 80 to 100 | 80 to 100 | 80 to 100 | – |
| FC(F)(F)Oc1ccc(C(Cl)(COCc2cccc(Oc3ccccc3)c2)C(F)(F)F)cc1 (stereo not drawn) [Compound 59, 1,1,1-Trifluoro-2-chloro-2-(4-trifluoromethoxyphenyl)-3-(3-phenoxybenzyloxy)propane] | – | – | – | – | – | – | – | – | mortality at 100 ppm (Tetranychus urticae): 80 to 100%; mortality at 100 ppm (Myzus persicae): < 50%; mortality at 100 ppm (Musca domestica [1]): 80 to 100%; pest or weed control at 100 ppm (Musca domestica [2]): 80 to 100%; mortality at 100 ppm (Nilaparvata lugens): 80 to 100%; mortality at 100 ppm (Heliothis virescens): 80 to 100%; mortality at 100 ppm (Diabrotica balteata): 80 to 100%; mortality at 100 ppm (Blattella germanica): 80 to 100% |
| CCOc1ccc(C(F)(COCc2cccc(Oc3ccc(Cl)cc3)c2)C(F)(F)F)cc1 (stereo not drawn) [Compound 79, 1,1,1,2-Tetrafluoro-2-(4-ethoxyphenyl)-3-(3-(4-chlorophenoxy)benzyloxy)propane] | – | – | – | – | – | – | – | – | mortality at 250 ppm (Tetranychus urticae): < 50%; mortality at 250 ppm (Myzus persicae): < 50%; mortality at 250 ppm (Musca domestica [1]): 80 to 100%; pest or weed control at 250 ppm (Musca domestica [2]): 80 to 100%; mortality at 250 ppm (Nilaparvata lugens): 80 to 100%; mortality at 250 ppm (Heliothis virescens): 80 to 100%; mortality at 250 ppm (Diabrotica balteata): < 50%; mortality at 250 ppm (Blattella germanica): 80 to 100% |
| CCOc1ccc(C(F)(COCc2cccc(-c3ccccc3)c2C)C(F)(F)F)cc1 (stereo not drawn) [Compound 80, 1,1,1,2-Tetrafluoro-2-(4-ethoxyphenyl)-3-(2-methyl-3-phenylbenzyloxy)propane] | < 50 | 80 to 100 | 80 to 100 | 80 to 100 | 80 to 100 | < 50 | 80 to 100 | 80 to 100 | – |
| FC(F)(F)Oc1ccc(C(F)(COCc2cccc(Oc3ccccc3)c2)C(F)(F)F)cc1 (stereo not drawn) [Compound 82, 1,1,1,2-Tetrafluoro-2-(4-trifluoromethoxyphenyl)-3-(3-phenoxybenzyloxy)propane] | < 50 | 80 to 100 | 80 to 100 | 80 to 100 | < 50 | 80 to 100 | 80 to 100 | 80 to 100 | – |
| CCOc1ccc(C(O)(COCc2cccc(Oc3ccccc3)c2)C(F)(F)F)cc1 (stereo not drawn) [Compound 112, 1,1,1-trifluoro-2-(4-ethoxyphenyl)-3-(3-phenoxybenzyloxy)propan-2-ol] | – | – | – | – | – | – | – | – | mortality at 250 ppm (Tetranychus urticae): < 50%; mortality at 250 ppm (Myzus persicae): < 50%; mortality at 250 ppm (Musca domestica [1]): < 50%; pest or weed control at 250 ppm (Musca domestica [2]): 50 to 79%; mortality at 250 ppm (Nilaparvata lugens): < 50%; mortality at 250 ppm (Heliothis virescens): < 50%; mortality at 250 ppm (Diabrotica balteata): 80 to 100%; mortality at 250 ppm (Blattella germanica): < 50% |
| CCOc1ccc(C(O)(COCc2ccc(F)c(Oc3ccc(Cl)cc3)c2)C(F)(F)F)cc1 (stereo not drawn) [Compound 117, 1,1,1-Trifluoro-2-(4-ethoxyphenyl)-3-(3-(4-chlorophenoxy)-4-fluorobenzyloxy)propan-2-ol] | < 50 | < 50 | 50 to 79 | 80 to 100 | < 50 | < 50 | < 50 | < 50 | – |
| OC(COCc1ccc(F)c(Oc2ccccc2)c1)(c1ccc2c(c1)CCC2)C(F)(F)F (stereo not drawn) [Compound 124, 1,1,1-Trifluoro-2-(5-indanyl)-3-(3-phenoxy-4-fluorobenzyloxy)propan-2-ol] | 80 to 100 | < 50 | < 50 | < 50 | < 50 | < 50 | < 50 | < 50 | – |
